Tests used:
MCF7 = experiment: cells; settings: Homo sapiens, MCF7, 72 h
Description: Antiproliferative activity against human MCF7 cells after 72 hrs by CCK8 assay

HCT-116 = experiment: cells; settings: Homo sapiens, HCT-116, 72 h
[1] = molecular target: PI3-kinase p110-alpha/p85-alpha (Homo sapiens, UniProt P42336, H1047R); experiment: Inhibition of recombinant full length PI3K p85alpha/p110alpha H1047R mutant (unknown origin) expressed in baculovirus infected sf9 cells using PIP2 as substrate preincubated for 10 mins followed by ATP addition and measured after 45 mins by HTRF assay
[2] = molecular target: PI3-kinase p110-alpha/p85-alpha (Homo sapiens, UniProt P42336); experiment: Inhibition of recombinant full length PI3K p110alpha/p85alpha (unknown origin) expressed in baculovirus infected sf9 cells using PIP2 as substrate preincubated for 10 mins followed by ATP addition and measured after 45 mins by HTRF assay
[3] = Inhibition of mTORC1 (unknown origin); design: species or system Homo sapiens

Chain of PI3-kinase p110-alpha/p85-alpha (Homo sapiens, UniProt P42336, H1047R) (P42336 whole entry H1047R, looked up): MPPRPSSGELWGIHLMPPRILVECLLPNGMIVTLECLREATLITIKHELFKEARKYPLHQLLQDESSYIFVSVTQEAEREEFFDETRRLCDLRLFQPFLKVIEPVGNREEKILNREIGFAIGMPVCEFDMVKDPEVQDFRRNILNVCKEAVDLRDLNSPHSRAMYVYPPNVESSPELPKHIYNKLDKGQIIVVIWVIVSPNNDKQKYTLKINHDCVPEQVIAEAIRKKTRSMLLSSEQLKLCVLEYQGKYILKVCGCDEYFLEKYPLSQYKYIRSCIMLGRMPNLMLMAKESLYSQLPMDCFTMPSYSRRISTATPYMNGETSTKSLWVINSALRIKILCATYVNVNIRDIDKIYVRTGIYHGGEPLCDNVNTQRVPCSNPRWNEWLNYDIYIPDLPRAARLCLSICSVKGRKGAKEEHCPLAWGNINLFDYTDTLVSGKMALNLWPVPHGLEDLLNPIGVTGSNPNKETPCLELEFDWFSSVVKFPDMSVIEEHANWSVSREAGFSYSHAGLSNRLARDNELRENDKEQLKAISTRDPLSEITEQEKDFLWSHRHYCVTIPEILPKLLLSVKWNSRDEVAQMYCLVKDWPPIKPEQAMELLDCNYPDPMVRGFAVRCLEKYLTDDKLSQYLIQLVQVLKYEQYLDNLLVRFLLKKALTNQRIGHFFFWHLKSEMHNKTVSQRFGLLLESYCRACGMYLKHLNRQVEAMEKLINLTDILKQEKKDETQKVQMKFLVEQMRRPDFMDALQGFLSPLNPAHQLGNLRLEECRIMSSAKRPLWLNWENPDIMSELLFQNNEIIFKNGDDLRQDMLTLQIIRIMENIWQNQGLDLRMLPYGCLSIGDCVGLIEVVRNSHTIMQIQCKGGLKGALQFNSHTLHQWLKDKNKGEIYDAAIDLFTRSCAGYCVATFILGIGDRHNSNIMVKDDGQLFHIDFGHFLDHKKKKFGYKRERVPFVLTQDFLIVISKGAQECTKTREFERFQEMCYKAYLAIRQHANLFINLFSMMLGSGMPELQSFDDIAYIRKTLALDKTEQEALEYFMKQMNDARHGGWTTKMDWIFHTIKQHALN
Chain of PI3-kinase p110-alpha/p85-alpha (Homo sapiens, UniProt P42336) (P27986 whole entry): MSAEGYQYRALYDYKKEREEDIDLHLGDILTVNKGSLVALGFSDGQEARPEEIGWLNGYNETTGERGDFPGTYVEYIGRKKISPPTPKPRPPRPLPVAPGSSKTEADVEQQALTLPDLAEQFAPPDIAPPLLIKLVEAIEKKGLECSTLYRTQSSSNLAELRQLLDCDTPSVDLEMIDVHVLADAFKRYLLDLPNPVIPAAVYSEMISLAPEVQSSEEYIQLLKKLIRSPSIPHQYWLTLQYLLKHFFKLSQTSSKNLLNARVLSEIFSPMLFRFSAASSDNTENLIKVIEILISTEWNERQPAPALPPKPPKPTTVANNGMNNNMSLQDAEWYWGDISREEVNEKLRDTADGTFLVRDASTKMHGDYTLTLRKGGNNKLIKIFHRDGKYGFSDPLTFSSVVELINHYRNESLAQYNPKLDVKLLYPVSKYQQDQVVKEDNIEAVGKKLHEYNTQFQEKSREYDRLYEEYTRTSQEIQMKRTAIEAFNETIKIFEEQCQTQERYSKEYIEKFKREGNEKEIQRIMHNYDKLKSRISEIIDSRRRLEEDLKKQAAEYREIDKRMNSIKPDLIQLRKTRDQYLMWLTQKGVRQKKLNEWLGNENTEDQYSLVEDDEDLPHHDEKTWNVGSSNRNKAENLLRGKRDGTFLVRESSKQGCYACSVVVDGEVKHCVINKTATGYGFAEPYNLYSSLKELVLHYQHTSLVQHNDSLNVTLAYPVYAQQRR
Chain of PI3-kinase p110-alpha/p85-alpha (Homo sapiens, UniProt P42336) (P42336 whole entry): as the sequence (P42336 whole entry H1047R, looked up) above, with R1047H counted along it

Q: For `c1coc(-c2nc3ccc(-c4cc5ccccc5s4)cc3nc2-c2ccco2)c1`, which IC50 (MCF7) is on record?
A: > 50 µM

Q: What about the IC50 (HCT-116) of the same molecule?
A: > 50 µM

Q: What about the EC50 [1] of the same molecule?
A: > 100 µM

Q: For `Fc1ccc(-c2cc3nc(-c4ccco4)c(-c4ccco4)nc3cc2Br)cc1`, which IC50 (MCF7) is on record?
A: 35.1 µM

Q: What about the IC50 (HCT-116) of the same molecule?
A: 38.1 µM

Q: What about the EC50 [1] of the same molecule?
A: 1.9 µM

Q: For `Fc1ccc(-c2cc3nc(-c4ccco4)c(-c4ccco4)nc3cc2Br)c(F)c1`, which IC50 (MCF7) is on record?
A: 27.9 µM

Q: And the IC50 (HCT-116)?
A: 16.6 µM

Q: What about the EC50 [1] of the same molecule?
A: 3.2 µM

Q: What does the source list for `c1ccc(-c2ccc3nc(-c4ccco4)c(-c4ccco4)nc3c2)cc1`?
A: EC50 [2]: 12.4 µM; IC50 (MCF7): > 50 µM; IC50 (HCT-116): > 50 µM; EC50 [1]: 47.8 µM

Q: For `Brc1cc2nc(-c3ccco3)c(-c3ccco3)nc2cc1-c1ccncc1`, which IC50 (MCF7) is on record?
A: > 50 µM

Q: What about the IC50 (HCT-116) of the same molecule?
A: 45.7 µM

Q: And the EC50 [1]?
A: 10.8 µM

Q: For `FC(F)(F)c1ccc(-c2cc3nc(-c4ccco4)c(-c4ccco4)nc3cc2Br)cc1`, which IC50 (MCF7) is on record?
A: 25.2 µM

Q: What about the IC50 (HCT-116) of the same molecule?
A: 14.9 µM

Q: And the EC50 [1]?
A: 0.516 µM

Q: What does the source list for `FC(F)(F)c1ccc2nc(-c3ccco3)c(-c3ccco3)nc2c1`?
A: IC50 (MCF7): > 50 µM; IC50 (HCT-116): > 50 µM; EC50 [1]: > 100 µM

Q: With `Brc1ccccc1-c1cc2nc(-c3ccco3)c(-c3ccco3)nc2cc1Br` as the molecule, how does the IC50 (MCF7) read?
A: > 50 µM

Q: And the IC50 (HCT-116)?
A: > 50 µM

Q: And the EC50 [1]?
A: > 100 µM

Q: Which IC50 (MCF7) does the source give for `Clc1ccc2nc(-c3ccco3)c(-c3ccco3)nc2c1Cl` here?
A: > 50 µM

Q: And the IC50 (HCT-116)?
A: > 50 µM

Q: And the EC50 [1]?
A: > 100 µM

Q: For `COc1cc(OC)cc(-c2cc3nc(-c4ccco4)c(-c4ccco4)nc3cc2Br)c1`, which IC50 (MCF7) is on record?
A: > 50 µM

Q: And the IC50 (HCT-116)?
A: > 50 µM

Q: And the EC50 [1]?
A: > 100 µM

Q: Which IC50 (MCF7) does the source give for `CC(C)(C)OC(=O)n1cccc1-c1cc2nc(-c3ccco3)c(-c3ccco3)nc2cc1Br` here?
A: > 50 µM

Q: What about the IC50 (HCT-116) of the same molecule?
A: > 50 µM

Q: And the EC50 [1]?
A: 18.6 µM

Q: With `Oc1ccccc1-c1ccc2nc(-c3ccco3)c(-c3ccco3)nc2c1` as the molecule, how does the IC50 (MCF7) read?
A: > 50 µM

Q: And the IC50 (HCT-116)?
A: > 50 µM

Q: And the EC50 [1]?
A: 43.5 µM

Q: Which IC50 (MCF7) does the source give for `Fc1cccc(-c2cc3nc(-c4ccco4)c(-c4ccco4)nc3cc2Br)c1F` here?
A: > 50 µM

Q: And the IC50 (HCT-116)?
A: > 50 µM

Q: What about the EC50 [1] of the same molecule?
A: 7.3 µM

Q: For `Brc1cc2nc(-c3ccco3)c(-c3ccco3)nc2cc1-c1ccccc1`, which IC50 (MCF7) is on record?
A: > 50 µM

Q: What about the IC50 (HCT-116) of the same molecule?
A: > 50 µM

Q: What about the EC50 [1] of the same molecule?
A: 20.5 µM

Q: For `Brc1cc2nc(-c3ccco3)c(-c3ccco3)nc2cc1-c1cncnc1`, which IC50 (MCF7) is on record?
A: > 50 µM

Q: And the IC50 (HCT-116)?
A: > 50 µM

Q: What about the EC50 [1] of the same molecule?
A: 13.5 µM

Q: Which results are given for `FC(F)(F)c1ccccc1-c1ccc2nc(-c3ccco3)c(-c3ccco3)nc2c1`?
A: EC50 [2]: 12.8 µM; IC50 (MCF7): > 50 µM; IC50 (HCT-116): 45.3 µM; EC50 [1]: 11.8 µM

Q: Which IC50 (MCF7) does the source give for `Clc1ccc2nc(-c3ccco3)c(-c3ccco3)nc2c1` here?
A: > 50 µM

Q: What about the IC50 (HCT-116) of the same molecule?
A: > 50 µM

Q: What about the EC50 [1] of the same molecule?
A: 18.1 µM

Q: What does the source list for `c1ccc2nc(N3CCOCC3)c(N3CCOCC3)nc2c1`?
A: IC50 (MCF7): > 50 µM; IC50 (HCT-116): > 50 µM; EC50 [1]: > 100 µM

Q: For `c1coc(-c2nc3ccc(-c4ccncc4)cc3nc2-c2ccco2)c1`, which IC50 (MCF7) is on record?
A: > 50 µM

Q: And the IC50 (HCT-116)?
A: > 50 µM

Q: And the EC50 [1]?
A: > 100 µM

Q: For `FC(F)(F)c1ccccc1-c1cc2nc(-c3ccco3)c(-c3ccco3)nc2cc1Br`, which EC50 [2] is on record?
A: 0.097 µM

Q: What about the IC50 (MCF7) of the same molecule?
A: 15.5 µM

Q: What about the IC50 (HCT-116) of the same molecule?
A: 13.5 µM

Q: And the EC50 [1]?
A: 0.169 µM

Q: For `c1ccc(-c2nc3ccccc3nc2-c2ccccc2)cc1`, which IC50 (MCF7) is on record?
A: > 50 µM

Q: And the IC50 (HCT-116)?
A: > 50 µM

Q: What about the EC50 [1] of the same molecule?
A: > 100 µM

Q: What does the source list for `c1coc(-c2nc3ccc(-c4cc5ccccc5o4)cc3nc2-c2ccco2)c1`?
A: IC50 (MCF7): > 50 µM; IC50 (HCT-116): > 50 µM; EC50 [1]: > 100 µM

Q: What does the source list for `COc1ccccc1-c1ccc2nc(-c3ccco3)c(-c3ccco3)nc2c1`?
A: IC50 (MCF7): > 50 µM; IC50 (HCT-116): > 50 µM; EC50 [1]: 87.3 µM

Q: For `Cn1c(=O)n(-c2ccc(C(C)(C)C#N)cc2)c2c3cc(-c4cnc5ccccc5c4)ccc3ncc21` [DACTOLISIB], which EC50 [3] is on record?
A: 0.079 µM

Q: With `Brc1ccc2nc(-c3ccco3)c(-c3ccco3)nc2c1` as the molecule, how does the EC50 [2] read?
A: 27.6 µM

Q: And the IC50 (MCF7)?
A: > 50 µM

Q: What about the IC50 (HCT-116) of the same molecule?
A: > 50 µM

Q: What about the EC50 [1] of the same molecule?
A: 33.5 µM

Q: Which IC50 (MCF7) does the source give for `COc1ccc(-c2cc3nc(-c4ccco4)c(-c4ccco4)nc3cc2Br)cc1` here?
A: > 50 µM

Q: What about the IC50 (HCT-116) of the same molecule?
A: > 50 µM

Q: What about the EC50 [1] of the same molecule?
A: > 100 µM

Q: For `Clc1ccccc1-c1cc2nc(-c3ccco3)c(-c3ccco3)nc2cc1Br`, which IC50 (MCF7) is on record?
A: > 50 µM

Q: What about the IC50 (HCT-116) of the same molecule?
A: > 50 µM

Q: What about the EC50 [1] of the same molecule?
A: > 100 µM

Q: Which results are given for `Cc1ccc2nc(-c3ccco3)c(-c3ccco3)nc2c1`?
A: IC50 (MCF7): > 50 µM; IC50 (HCT-116): > 50 µM; EC50 [1]: > 100 µM

Q: With `Oc1ccccc1-c1cc2nc(-c3ccco3)c(-c3ccco3)nc2cc1Br` as the molecule, how does the IC50 (MCF7) read?
A: > 50 µM

Q: What about the IC50 (HCT-116) of the same molecule?
A: > 50 µM

Q: What about the EC50 [1] of the same molecule?
A: > 100 µM

Q: With `COc1ccccc1-c1cc2nc(-c3ccco3)c(-c3ccco3)nc2cc1Br` as the molecule, how does the IC50 (MCF7) read?
A: > 50 µM

Q: And the IC50 (HCT-116)?
A: > 50 µM

Q: And the EC50 [1]?
A: > 100 µM

Q: With `c1csc(-c2nc3ccccc3nc2-c2cccs2)c1` as the molecule, how does the IC50 (MCF7) read?
A: > 50 µM

Q: What about the IC50 (HCT-116) of the same molecule?
A: > 50 µM

Q: What about the EC50 [1] of the same molecule?
A: > 100 µM

Q: For `Fc1ccccc1-c1ccc2nc(-c3ccco3)c(-c3ccco3)nc2c1`, which IC50 (MCF7) is on record?
A: > 50 µM

Q: What about the IC50 (HCT-116) of the same molecule?
A: 39.7 µM

Q: What about the EC50 [1] of the same molecule?
A: 12.7 µM

Q: What does the source list for `Brc1cc2nc(-c3ccco3)c(-c3ccco3)nc2cc1-c1cc2ccccc2s1`?
A: IC50 (MCF7): 40.9 µM; IC50 (HCT-116): 38.5 µM; EC50 [1]: 1.2 µM

Q: With `Clc1cc(Cl)c2nc(-c3ccco3)c(-c3ccco3)nc2c1` as the molecule, how does the EC50 [2] read?
A: 54.6 µM

Q: What about the IC50 (MCF7) of the same molecule?
A: > 50 µM

Q: What about the IC50 (HCT-116) of the same molecule?
A: > 50 µM

Q: What about the EC50 [1] of the same molecule?
A: 76 µM

Q: For `Fc1ccc2nc(-c3ccco3)c(-c3ccco3)nc2c1`, which IC50 (MCF7) is on record?
A: > 50 µM

Q: What about the IC50 (HCT-116) of the same molecule?
A: > 50 µM

Q: What about the EC50 [1] of the same molecule?
A: > 100 µM

Q: With `Brc1cc2nc(-c3ccco3)c(-c3ccco3)nc2cc1-c1cc2ccccc2o1` as the molecule, how does the IC50 (MCF7) read?
A: > 50 µM

Q: And the IC50 (HCT-116)?
A: > 50 µM

Q: What about the EC50 [1] of the same molecule?
A: > 100 µM

Q: For `Brc1cc2nc(-c3ccco3)c(-c3ccco3)nc2cc1Br`, which IC50 (MCF7) is on record?
A: > 50 µM

Q: And the IC50 (HCT-116)?
A: > 50 µM

Q: What about the EC50 [1] of the same molecule?
A: 39.3 µM

Q: Which results are given for `Fc1cccc(-c2cc3nc(-c4ccco4)c(-c4ccco4)nc3cc2Br)c1`?
A: IC50 (MCF7): 19.6 µM; IC50 (HCT-116): 43.1 µM; EC50 [1]: 2.9 µM

— ChEMBL document CHEMBL4270587, “Difuran-substituted quinoxalines as a novel class of PI3Kα H1047R mutant inhibitors: Synthesis, biological evaluation and structure-activity relationship” (Eur J Med Chem, 2018)
